Experimental data as given in US6585961B1, “Antimicrobial compositions” (priority 2001, dated 2003).

Tests used:
[1] = Hydrophile-lipophile balance (HLB) of surfactant; format: physicochemical; conditions: for HLB Value: surfactants (2 wt. %) found to give the desired results; for HLB: Table I
Excerpt: An old and well-accepted method to determine functionality of surfactants is known as the hydrophile -lipophile balance (HLB). The HLB is an expression of the relative simultaneous attraction of a surfactant for water and for oil. The HLB of a surfactant determines the type of an emulsion that tends to be formed. It is an indicative of the behavior characteristics and not an indication of surfactant efficiency.
When two or more surfactants are to be blended the HLB of the combinations is easily calculated. If x is the proportion of one surfactant having an HLB of A, and the other surfactant has an HLB of B, the HLB of the combination can be expressed for all practical purposes as xA+(1−x)B. This is a straight-line relationship. If the value of this 16 or greater, then most likely the combination will be workable.

[2] = Appearance and particle size of essential oil emulsion with surfactant; format: physicochemical; conditions: Table I; for Appearance: emulsion of essential oils with surfactant; for Estimated Particle Size: micelle of essential oils with surfactant
Excerpt: Since there are literally thousands of surfactants, many of which fulfill these criteria, it would be a very difficult task to examine every one of them on an individual basis. […]

Compound	HLB Value [1]	HLB [1]	Appearance [2]	Estimated Particle Size [2]
CCCCCCCCCCCCOS(=O)(=O)[O-].[Na+] [Dodecyl sulfate, sodium salt]	˜40			
CCCCCCCCCCCCCCCCCC(=O)OCCO [Glycol stearate LIPO EGDS, Glycol stearate]		2.0	2 phase	very large^1
Cocamidopropyl betaine [Tego Betaine ZF]			transparent	≧0.05u
DL-2-pyrrolidone-5-carboxylic acid salt of ethyl N-cocoyl-L-arginate	>20			
Glyceryl dilaurate [Glyceryl dilaurate Lexemul GDL]		2.4	not dispersible	very large^1
